Measured values as given in patent publication US11490644B2, “Co-Q10, krill oil and vitamin D” (RB HEALTH (US) LLC, priority 2015, dated 2022).
Where two headings read alike, the source gives them in different places.

Legend:
Assay type in all cases: physicochemical
[1] = Influence of antioxidant dosing on Co-Q10 stability
Method: (§1) Several antioxidants were evaluated for their ability to stabilize Co-Q10 in krill oil and Vitamin D. The results are summarized in Table 2.

[2] = Antioxidant study: influence of antioxidant on Co-Q10 stability in krill oil and Vitamin D; conditions: for Amount of Co-Q10: in krill oil and Vitamin D with the antioxidant
Method: as §1

[3] = Stability of Co-Q10 and Co-QH in krill oil and Vitamin D mixtures, accelerated conditions; conditions: over the 12-week period; 40° C., 75% relative humidity
Method: Two formulations comprising Co-Q10 (Study I) and Co-QH (Study II) were evaluated for stability in krill oil and Vitamin D mixtures. The compositions were subjected to accelerated conditions (40° C., 75% relative humidity for up to 12 weeks), and the amounts of Co-Q10, Co-QH, and ubichromenol were evaluated at several time points.

[4] = Influence of chelating agent on Co-Q10 stability; conditions: with the chelating agent
[5] = antioxidant medium dose, 1 week
[6] = antioxidant medium dose, 2 weeks
[7] = antioxidant medium dose, Initial

O=C1O[C@H]([C@@H](O)CO)C(O)=C1O [Ascorbic Acid]
Amount of Co-Q10 ([1]; antioxidant high dose, 1 week): 100 mg
Amount of Co-Q10 ([1]; antioxidant high dose, 2 weeks): 100 mg
Amount of Co-Q10 ([1]; antioxidant high dose, Initial): 109 mg
Amount of Co-Q10 ([1]; antioxidant low dose, 1 week): 91 mg
Amount of Co-Q10 ([1]; antioxidant low dose, 2 weeks): 71 mg
Amount of Co-Q10 ([1]; antioxidant low dose, Initial): 137 mg
Amount of Co-Q10 [1, 5]: 136 mg
Amount of Co-Q10 [1, 6]: 138 mg
Amount of Co-Q10 [1, 7]: 145 mg
Amount of Co-Q10 ([2]; 1 week): 133 mg
Amount of Co-Q10 ([2]; 2 weeks): 129 mg
Amount of Co-Q10 ([2]; Initial): 139 mg

COC1=C(OC)C(=O)C(C/C=C(\C)CC/C=C(\C)CC/C=C(\C)CC/C=C(\C)CC/C=C(\C)CC/C=C(\C)CC/C=C(\C)CC/C=C(\C)CC/C=C(\C)CCC=C(C)C)=C(C)C1=O [Co-Q10, Coenzyme Q10]
Stability in krill oil and Vitamin D (in words) [3]: unstable

COc1c(O)c(C)c(C/C=C(\C)CC/C=C(\C)CC/C=C(\C)CC/C=C(\C)CC/C=C(\C)CC/C=C(\C)CC/C=C(\C)CC/C=C(\C)CC/C=C(\C)CCC=C(C)C)c(O)c1OC [Co-QH, ubiquinol]
Stability in krill oil and Vitamin D (in words) [3]: stable

O=C(O)CN(CCN(CC(=O)O)CC(=O)O)CC(=O)O [EDTA]
Amount of Co-Q10 ([4]; 1 week): 10 mg
Amount of Co-Q10 ([4]; 2 weeks): 0 mg
Amount of Co-Q10 ([4]; Initial): 125 mg

C=CCc1ccc(O)c(OC)c1 [Eugenol]
Amount of Co-Q10 ([1]; antioxidant high dose, 1 week): 43 mg
Amount of Co-Q10 ([1]; antioxidant high dose, 2 weeks): 26 mg
Amount of Co-Q10 ([1]; antioxidant high dose, Initial): 146 mg
Amount of Co-Q10 ([1]; antioxidant low dose, 1 week): 16 mg
Amount of Co-Q10 ([1]; antioxidant low dose, 2 weeks): 14 mg
Amount of Co-Q10 ([1]; antioxidant low dose, Initial): 142 mg
Amount of Co-Q10 [1, 5]: 23 mg
Amount of Co-Q10 [1, 6]: 16 mg
Amount of Co-Q10 [1, 7]: 146 mg
Ability to stabilize Co-Q10 in krill oil and Vitamin D (in words) [2]: degrades rapidly
Amount of Co-Q10 ([2]; 1 week): 48 mg
Amount of Co-Q10 ([2]; 2 weeks): 25 mg
Amount of Co-Q10 ([2]; Initial): 142 mg

CC(=O)OO [Peracetic acid (PAA), Peracetic acid]
Amount of Co-Q10 ([4]; 1 week): 10 mg
Amount of Co-Q10 ([4]; 2 weeks): 0 mg
Amount of Co-Q10 ([4]; Initial): 137 mg

NC(N)=S [Thiourea]
Ability to stabilize Co-Q10 in krill oil and Vitamin D (in words) ([2]; Table 2): degrades rapidly
